{"source": "paper PMC8293625", "about": "“HLA class-I-peptide stability mediates CD8^+ T cell immunodominance hierarchies and facilitates HLA-associated immune control of HIV” (Cell Reports, 2021)", "key": {"[1]": {"biological_target": "HLA-A*0301 on TAP-deficient mono-allelic 721.221 cells (human | human (endogenous in 721.221))", "assay": "flow cytometry on cells"}, "[2]": {"biological_target": "Soluble HLA-A*0301 monomer (heavy chain and β2-microglobulin)", "assay": "differential scanning fluorimetry (thermal denaturation)"}, "[3]": {"biological_target": "T1, HLA-B*5701 (Homo sapiens, UniProt P01889, D201E/D98Y/E176V/E187L/E204Q/E69M/E70A/G107R/I90N/K202T/L105A/L119I/N104I/N87E/Q89R/Q94S/R106L/R155S/R180L/R86G/S101N/S121V/S35A/S48A/T118I/V36M/Y140S/Y91M)", "assay": "Thermal denaturation (differential scanning fluorimetry) of soluble HLA class I-peptide monomers", "assay_type": "binding", "settings": "DSF, 2 μM pMHC, SYPRO orange; representative, performed twice as technical triplicates (Fig S4B)", "protocol": "(§1) To confirm these observations and further validate the cell-based stability assay, we used an orthogonal approach to evaluate the relationship between HLA class-I-peptide stability and ID by assessing thermal denaturation of soluble HLA class-I-peptide complexes ([Hellman et al., 2016]). In this assay, soluble HLA class-I monomers with bound peptide are incubated in the presence of an environmentally sensitive fluorescent molecule whose fluorescence is enhanced when bound to exposed hydrophobic surfaces during protein unfolding. As a result, the thermal stability (Tm, defined as the temperature at which 50% of the protein is unfolded) of an HLA class-I-peptide complex can be determined by fluorometric measurements during incremental temperature increases, which serve as a proxy for the stabilizing capacity of a bound epitope ([Hellman et al., 2016]).\n(§2) This relative difference in Tm between ID and SubD epitopes was also observed for HLA-A^∗02 and HLA-B^∗57 (Figure S4) and collectively was statistically significant (Figure 3C).\n(§3) Expression, refold and purification of the soluble constructs of the pMHCs were performed as previously described ([Pierce et al., 2014]). Briefly, the HLA-A^∗02, HLA-A^∗03 and HLA-B^∗57 heavy chains, and β2-microglobulin were expressed in Escherichia coli and purified as inclusion bodies (IBs). The IBs were solubilized in 8M Urea. Target peptides were provided by the MGH Peptide Core. […]\n(§4) Differential scanning fluorimetry was performed using a Bio-RAD CFX96 real time PCR system as previously described. Briefly, the excitation and emission wavelengths were set to 587 and 607 nm respectively, and the fluorescence intensity was measured after every 1°C rise in temperature starting from 20°C and going up to 95°C. […] Apparent Tm values were calculated by identifying the point at which the melting transition was 50% complete."}, "[4]": {"system": "HLA class-I alleles A*0101, A*0201, A*0301, A*2402, B*0702, B*0801, B*1402, B*1501, B*2705, B*3501, B*3901, B*4001, B*4402, B*5201, B*5701, B*5801, B*8101 …", "assay_type": "cell-based, human", "settings": "section B*58, TAP-deficient mono-allelic 721.221 cells, relative anti-HLA MFI"}, "[5]": {"biological_target": "T1, HLA-B*5701", "assay": "Cell-based HLA class I-peptide concentration-based stability assay (TAP-deficient mono-allelic 721.221 cells)", "settings": "for Relative HLA MFI (10 uM) / Relative HLA MFI (100 uM): section B*57, TAP-deficient mono-allelic 721.221 cells, relative anti-HLA MFI; for Relative HLA MFI (10 uM): peptide 10 uM; for Relative HLA MFI (100 uM): peptide 100 uM; for anti-HLA MFI (surface HLA-B*5701): representative (Fig S2B)", "method": "(§5) Controls without peptide, but the corresponding concentration of DMSO, were performed in parallel."}, "[6]": {"biological_target": "T2, HLA-A*0301 (Homo sapiens, UniProt P04439)", "assay": "Cell-based HLA class I-peptide concentration-based stability assay (TAP-deficient mono-allelic 721.221 cells)", "method": "as §5"}, "[7]": {"biological_target": "T2, HLA-A*0301", "assay": "Thermal denaturation (differential scanning fluorimetry) of soluble HLA class I-peptide monomers", "assay_type": "binding", "settings": "DSF, 2 μM pMHC, 10mM HEPES pH 7.4, 150 mM NaCl, SYPRO orange, 20–95°C in 1°C steps; representative (Fig 3B)", "protocol": "as §1, §2, §3, §4"}}}
{"substance": "HIV A*03-restricted RK9 epitope ([…], Gag p17 20-28) (peptide)", "values": [{"measurement": "percent stable HLA-peptide complexes on the surface after 4 h at 37°C with BFA", "setting": "[1]", "result": 40, "unit": "%"}, {"measurement": "Tm of the HLA-peptide complex", "setting": "[2]", "result": 53, "unit": "°C"}]}
{"substance": "HTQGYFPDW [HW9]", "values": [{"measurement": "thermal stability (Tm) of HLA-B*5701-peptide complex", "setting": "[3]", "result": 57, "unit": "°C"}, {"measurement": "Relative HLA MFI (10 uM)", "setting": "[4]; peptide 10 uM", "result": 0.6285}, {"measurement": "Relative HLA MFI (100 uM)", "setting": "[4]; peptide 100 uM", "result": 1}, {"measurement": "Relative HLA MFI (10 uM)", "setting": "[5]", "result": 0.3192}, {"measurement": "Relative HLA MFI (100 uM)", "setting": "[5]", "result": 0.6623}]}
{"substance": "KAFSPEVIPMF [KF11]", "values": [{"measurement": "thermal stability (Tm) of HLA-B*5701-peptide complex", "setting": "[3]", "result": 57, "unit": "°C"}, {"measurement": "anti-HLA MFI (surface HLA-B*5701)", "setting": "[5]; absence of β2m", "result": 426}, {"measurement": "anti-HLA MFI (surface HLA-B*5701)", "setting": "[5]; presence of β2m (3 µg/mL)", "result": 565}, {"measurement": "Relative HLA MFI (10 uM)", "setting": "[5]", "result": 0.2215}, {"measurement": "Relative HLA MFI (100 uM)", "setting": "[5]", "result": 0.5689}]}
{"substance": "RLAFHHVAR [RR9]", "values": [{"measurement": "Relative HLA MFI (10 uM)", "setting": "[6]; HLA A*03 mono-allelic TAP-deficient 721.221 cells, peptide 10 uM, relative anti-HLA MFI", "result": 0.003513}, {"measurement": "Relative HLA MFI (100 uM)", "setting": "[6]; HLA A*03 mono-allelic TAP-deficient 721.221 cells, peptide 100 uM, relative anti-HLA MFI", "result": 0.03204}, {"measurement": "anti-HLA MFI (HLA-A*0301 surface stabilization)", "setting": "[6]; HLA-A*0301 + sgRNA TAP cells (Fig 3A), peptide concentration not given", "result": 123}, {"measurement": "thermal stability (Tm) of HLA-A*0301-peptide complex", "setting": "[7]", "result": 44, "unit": "°C"}]}
